Experimental data taken from the NIST ThermoML archive (doi:10.1016/j.jct.2018.06.022).

Settings: Liquid, Closed cell (Static) method

O=C=O [carbon dioxide]
Settings | vapor or sublimation pressure [kPa]
218.15 K | 552.5
233.15 K | 1004.4
243.15 K | 1428
258.15 K | 2293.7
273.15 K | 3484.6
288.19 K | 5089.6
302.94 K | 7171.2
